In US6503490B2, “Deodorant products” (Unilever Home & Personal Care USA, division of Conopco, Inc., priority 2000, dated 2003):

Key:
[1] = system: Staphylococcus epidermidis; test: Anti-microbial performance test: growth inhibition of axillary isolate of S. epidermidis in semi-synthetic medium (OD 600 nm); format: cell-based; conditions: concentration of 3×10^−6 mol.dm^−3 or less
Protocol: An axillary isolate of Staphylococcus epidermidis was grown overnight in 100 ml of tryptone soy broth (TSB, Oxoid Ltd). 10 ml of this culture was taken and subjected to centrifugation. The separated cells were re-suspended in 10 ml of phosphate buffered saline and the centrifugation procedure repeated. The washed cells were re-suspended in 10 ml of phosphate buffered saline to give the inoculum. 100 μl of the inoculum was added to 100 ml of semi-synthetic medium (SSM) containing (NH4)2SO4 (0.066 g),MgSO4.7H2O (0.012 g), KCl (0.1 g), KH2PO4 (0.27 g), Na2HPO4 (1.43 g), thiamin (0.1 mg), biotin (0.05 mg), Peptone P (0.05 g), and glucose (2.0 mmole) which had been previously sterilised by autoclaving at 121° C. for 20 minutes. The pH of the SSM was adjusted to 6.7 with HCl after sterilisation, prior to addition of the inoculum. This control medium was utilised in all of the in vitro inhibition studies. The chelator-containing test media were prepared in a similar manner, the chelator being introduced at a concentration of 3×10^−6 mol.dm^−3 before the pH adjustment with HCl.
100 μl of the S. epidermidis inoculum was introduced into the control medium and into test media containing the chelators indicated in Table 2. The cultures were inoculated at 37° C. (with agitation at 200 rpm) for 16 hours, and the optical density of the cultures measured at 600 nm to determine the extent of bacterial growth. By comparison of the optical density of the culture in the presence of chelating agent, to that of the control, the percentage inhibition of growth was established. (Optical density measurements were made on 1 in 4 dilutions of the cultures with 0.9% (w/v) saline, using 1 cm path length cuvettes, on a Pharmacia Biotech Ultrospec 200 Spectrophotometer.)

[2] = molecular target: T1, human diferric transferrin (Homo sapiens, UniProt P02787); test: Transferrin dissociation promotion test (FerroZine, absorption at 562 nm); format: biochemical; conditions: after 24 hours, 10 mmol.l^−1 test material, 37° C., pH 6.5, control 0.111
T1 construct: purchased Sigma Chemicals
T1 sequence (P02787 20-698): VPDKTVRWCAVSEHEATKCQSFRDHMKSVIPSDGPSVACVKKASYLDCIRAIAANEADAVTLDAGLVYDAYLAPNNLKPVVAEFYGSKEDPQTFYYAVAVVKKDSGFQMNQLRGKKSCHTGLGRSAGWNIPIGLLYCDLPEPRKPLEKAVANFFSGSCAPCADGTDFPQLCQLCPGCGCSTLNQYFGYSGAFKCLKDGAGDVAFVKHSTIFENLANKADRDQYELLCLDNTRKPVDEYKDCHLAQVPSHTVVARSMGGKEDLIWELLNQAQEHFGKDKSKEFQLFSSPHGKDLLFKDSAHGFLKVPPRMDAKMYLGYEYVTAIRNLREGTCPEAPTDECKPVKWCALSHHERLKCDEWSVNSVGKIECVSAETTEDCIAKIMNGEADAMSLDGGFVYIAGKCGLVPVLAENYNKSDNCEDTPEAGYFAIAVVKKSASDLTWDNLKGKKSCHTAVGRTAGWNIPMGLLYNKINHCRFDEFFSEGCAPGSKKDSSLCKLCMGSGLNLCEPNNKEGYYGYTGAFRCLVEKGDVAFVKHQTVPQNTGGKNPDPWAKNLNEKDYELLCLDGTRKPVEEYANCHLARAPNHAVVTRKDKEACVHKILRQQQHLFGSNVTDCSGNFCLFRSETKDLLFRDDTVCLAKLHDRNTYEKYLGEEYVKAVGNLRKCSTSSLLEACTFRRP
Protocol: 2.7 g.l^−1 human diferric transferrin (ex Sigma Chemicals) is incubated at 37° C. in 50 mM HEPES (N-[2-hydroxyethyl]piperazine-N-[2-ethanesulfonic acid]) buffer adjusted to pH 6.5 with sodium hydroxide, together with 0.115 g.l^−1 FerroZine (ex Sigma Chemicals; 3-(2-pyridyl)-5,6-bis(4-phenylsulfonic acid)-1,2,4-triazine, monosodium salt) and 10 mmol.l^−1 of the test material, if water soluble, or 2.5 g.l^−1 of the test material, added as a finely ground powder, if water insoluble.
After 24 hours, the extent of transferrin dissociation is estimated by eye or spectrophotometrically. Transferrin dissociation promoters lead a purple colouration; in particular, they lead to an absorption at 562 nm of 0.15 or greater. This purple colouration is the result of the production of iron(II) tri(FerroZine) complex. The molar concentration of this complex is equal to the molar concentration of iron dissociated from the transferrin.
2.7 g.l^−1 human diferric transferrin (ex Sigma Chemicals) was incubated at 37° C. in 50 mM HEPES (N-[2-hydroxyethyl]piperazine-N′-[2-ethanesulfonic acid]) buffer adjusted to pH 6.5 with sodium hydroxide, together with 0.115 g.l^−1 FerroZine (ex Sigma Chemicals; 3-(2-pyridyl)-5,6-bis(4-phenylsulfonic acid)-1,2,4-triazine, monosodium salt) and 10 mmol.l^−1 of the test material.
After 24 hours, the extent of transferrin dissociation was estimated spectrophotometrically by measuring absorption at 562 nm (vide supra). The data (see Table 5) illustrate the enhanced transferrin dissociation occurring in the presence of the indicated test materials.

Row | Absorption [2] | SMILES | Significant inhibition of growth of S. epidermidis (at least 30%) [1]
1 |  | O=C(O)CN(CC(=O)O)[C@@H]1CCCC[C@H]1N(CC(=O)O)CC(=O)O (relative stereo) [CDTA, trans-1,2-diaminocyclohexane-N,N,N′,N′-tetraacetic acid] | are not
2 |  | O=C(O)CN(CCN(CC(=O)O)CC(=O)O)CCN(CC(=O)O)CC(=O)O [DTPA, diethylenetriaminepentaacetic acid] | capable of achieving significant inhibition
3 |  | O=C(O)CN(CCN(CC(=O)O)CC(=O)O)CC(=O)O [EDTA, ethylenediaminetetraacetic acid] | are not
4 | 0.425 | O=S(=O)(O)c1cc(O)c(O)c(S(=O)(=O)O)c1 [Iron, 4,5-dihydroxy-1,3-benzenedisulfonic acid] | 
5 | 0.305 | O=C(O)c1ccccc1O [Salicylic acid] | 
6 |  | O=C(O)CN(CCN(CCN(CC(=O)O)CC(=O)O)CC(=O)O)CCN(CC(=O)O)CC(=O)O [TTHA, triethylenetetraaminehexaacetic acid] | capable of achieving significant inhibition

Row | SMILES | Absorption [2] | Significant inhibition of growth of S. epidermidis (at least 30%) [1]
7 | O=C(O)c1ccc(O)c(O)c1 [Protocatechuic acid] | 0.391 | 
